Experimental data from BigSolDB 2.1.

solubility (mole fraction) (in ethanol, 288.15 K)	solubility (mole fraction) (in ethanol, 298.15 K)	solubility (mole fraction) (in ethanol, 308.15 K)	solubility (mole fraction) (in ethanol, 318.15 K)	solubility (mole fraction) (in isopropanol, 288.15 K)	solubility (mole fraction) (in isopropanol, 298.15 K)	solubility (mole fraction) (in isopropanol, 308.15 K)	solubility (mole fraction) (in isopropanol, 318.15 K)	solubility (mole fraction) (in n-propanol, 288.15 K)	solubility (mole fraction) (in n-propanol, 298.15 K)	solubility (mole fraction) (in n-propanol, 308.15 K)	solubility (mole fraction) (in n-propanol, 318.15 K)	SMILES
0.123	0.163	0.201	0.257	0.157	0.182	0.239	0.282	0.127	0.174	0.214	0.251	CCOC(=O)c1ccc(O)cc1
0.287	0.361	0.433	0.524	0.293	0.339	0.415	0.512	0.289	0.352	0.448	0.522	CCCCOC(=O)c1ccc(O)cc1
